Entries after “also recorded” stand apart in the source; their conditions may differ. Residues, ends and D or L forms follow the SMILES beside them. *: point of attachment. Cbz = O=C(OCc1ccccc1)*; CH2F = FC*
Assays:
H446 cells [1] = assay: Immunofluorescence of A-RNA (J2) and Z-NA (Z22), H446; format: cell-based, human; conditions: low dose
Text: FIG. 4A-4C: SF3B1 perturbation increases dsRNA and Z-nucleic acid levels in treated cells. […] (FIG. 4B) Quantification of A-RNA and Z-Nucleic acids. (FIG. 4C) Western blot showing induction of cleaved-PARP, pH2AX, and ZBP1, and the reduction of RIPK1 protein levels. Plots of signal intensity are mean±SEM, two-tailed unpaired Student's t test **p<0.01, ****p<0.0001.
Our observations led us to explore what caused the elevated IFN response. We used an immunofluorescence (IF) technique to determine if A-RNA was increased after PlaB treatment.

H446 cells [2] = assay: Restoration of cell survival by RIPK1 or caspase inhibition, H446; format: cell-based, human; conditions: H446 treated with PlaB plus inhibitor
Experimental: (§1) FIG. 8A-8B: Spliceosome Perturbation induces RIPK1-dependent apoptosis. (FIG. 8A) H82 and H446 cells were treated with PlaB, PlaB+Z-vad, PlaB+R3i, and PlaB+Z-Vad+R3i. H82 and H446 cells were treated with PlaB, PlaB+Z-vad, and PlaB+Necl.
(§2) In addition, our CRISPR-Cas9 KO of RIPK1 also rescues SCLC cell lines from PlaB induced toxicity.

H82 cells = assay: Restoration of cell survival by RIPK1 or caspase inhibition, H82; format: cell-based; conditions: H82 treated with PlaB plus inhibitor
Experimental: as §1, §2

ZBP1 reconstituted MEF = assay: Rescue of PlaB-mediated cell death by RIPK3 inhibitor; format: cell-based, mouse; conditions: 2.5 nM PlaB, 18 hours, with RIPK3 inhibitor
Experimental: FIG. 5A-5E: SF3B1 perturbation upregulates A-RNA and Z-nucleic acids in MEFs. (FIG. 5A) 5 nM of PlaB induces A-RNA and Z-Nucleic acids in ΔZBP1 MEF cells. (FIG. 5B) Quantification of A-RNA and Z-Nucleic acids. […] Plots of signal intensity are mean±SEM, two-tailed unpaired Student's t test *p<0.05, ***p<0.001, ****p<0.0001. 18 hours of PlaB treatment for IF, WB and rescue experiments. IF: 5 nM PlaB, WB and rescue experiments: 2.5 nM PlaB.
Since induction of Z-nAs can result in ZBP1-dependent necroptosis, we analyzed induction of necroptosis in necroptotic competent MEFs using spliceosome inhibition. […] We also determined that MEFs ΔZBP1, WT, and Flag-ZBP1 cells treated with PlaB began dying within 24hours after treatment. With MEF Flag-ZBP1 cells showing only 20% survival after 24 hours (FIG. 16).

Row | SMILES | accumulation of A-RNA (H446 cells [1]; J2 antibody) | accumulation of Z-Nucleic acids (H446 cells [1]; Z22 antibody) | cell survival (H446 cells [2]) | cell survival (H82 cells) | rescue of PlaB-mediated cell death (necroptosis) (ZBP1 reconstituted MEF)
1 | NS(=O)(=O)c1ccc(S(=O)(=O)Nc2cccc3c(Cl)c[nH]c23)cc1 [indisulam] | induces accumulation | induces accumulation | – | – | –
2 | CN1C(=O)C(Cc2c[nH]c3ccccc23)NC1=S (stereo not shown) [Nec-I, necrostatin I] | – | – | significantly restore cell survival | significantly restore cell survival | –
3 | COC(=O)C[C@H](NC(=O)[C@H](C)NC(=O)[C@@H](NC(=O)OCc1ccccc1)C(C)C)C(=O)CF [Z-Vad FMK] (Cbz-Val-Ala-Asp(OMe)-CH2F) | – | – | significantly restore cell survival | significantly restore cell survival | –
4 | Cc1cc(-c2cnc(N)c3c(-c4ccc5scnc5c4)csc23)n(C)n1 [GSK-843] | – | – | – | – | completely rescued; also recorded: successfully rescue
